Data set [1] deals with Monographella nivalis (Microdochium nivale). The data set can be described thus: Monographella nivalis (Microdochium nivale)/Liquid Culture (Foot Rot Cereals). The class given is cell-based. The following applies: liquid culture, compared to untreated control. Put shortly: (§1)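 First, the test compound in DMSO is placed in the wells. Next, potato dextrose broth seeded with conidia taken straight from cryogenic storage is added, and the culture is left to grow.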

Data set [2] relates to Puccinia recondita f. sp. tritici. The data set can be described thus: Puccinia recondita f. sp. tritici/Wheat/Leaf Disc Curative (Brown Rust). The class given is in vivo. The following applies: foliar, wheat leaf disc curative, compared to untreated control. Put shortly: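 Curative leaf-disc test on wheat cv. Kanzler segments on agar, spore-inoculated and kept dark at 19° C, 75% rh; formulated compound in water applied 1 day after inoculation. Incubated at 19° C, 75% rh, 12 h light/12 h dark; percent disease control versus untreated scored 6-8 days after application.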

For data set [3], the system named is Mycosphaerella arachidis (Cercospora arachidicola). The data set can be described thus: Mycosphaerella arachidis (Cercospora arachidicola)/Liquid Culture (Early Leaf Spot). The following applies: liquid culture, compared to untreated control. The class given is cell-based. Put shortly: as §1
A further data set has as its system Alternaria solani. The data set can be described thus: Alternaria solani/Tomato/Leaf Disc (Early Blight). It is filed as in vivo. Conditions: foliar, tomato leaf disc, compared to untreated control. On the procedure: Tomato leaf disks cv. Baby are placed on agar in multiwell plates (24-well format) and sprayed with the formulated test compound diluted in water. The leaf disks are inoculated with a spore suspension of the fungus 2 days after application. The inoculated leaf disks are incubated at 23° C./21° C. (day/night) and 80% rh (relative humidity) under a light regime of 12/12 h (light/dark) in a climate cabinet and the activity of a compound is assessed as percent disease control compared to untreated when an appropriate level of disease damage appears on untreated check disk leaf disks (5-7 days after application).

The subject of data set [4] is Mycosphaerella graminicola (Septoria tritici). The data set can be described thus: Mycosphaerella graminicola (Septoria tritici)/Liquid Culture (Septoria Blotch). It is filed as cell-based. The following applies: Zymoseptoria tritici; 20 ppm; liquid culture; compared to untreated control. Put shortly: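 Conidia from cryogenic storage mixed into potato dextrose broth and added to microtiter wells already holding DMSO solutions of test compound. Activity expressed as percentage disease control.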

Data set [5] relates to Blumeria graminis f. sp. tritici (Erysiphe graminis f. sp. tritici). Kind of data set: Blumeria graminis f. sp. tritici/Wheat/Leaf Disc Preventative (Powdery Mildew on Wheat). It is filed as in vivo. The following applies: foliar, wheat leaf disc preventative, compared to untreated control. In outline:
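Wheat cv. Kanzler leaf segments on agar sprayed with formulated compound, inoculated with powdery mildew 1 day later and held at 20° C, 60% rh (24 h dark, then 12 h light/12 h dark). Percent disease control versus untreated scored 6-8 days after application.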

Data set [6] relates to Puccinia recondita f. sp. tritici. Kind of data set: Puccinia recondita f. sp. tritici/Wheat/Leaf Disc Preventative (Brown Rust). The class given is in vivo. The following applies: foliar, 200 ppm, wheat leaf disc preventative, compared to untreated control, read-out: control of Puccinia recondita f. sp. tritici.
Data set [7] relates to Glomerella lagenarium (Colletotrichum lagenarium). The data set can be described thus: Glomerella lagenarium (Colletotrichum lagenarium)/Liquid Culture (Anthracnose). It is filed as cell-based. Conditions: Colletotrichum orbiculare, liquid culture, compared to untreated control.
For data set [8], the system named is Botryotinia fuckeliana (Botrytis cinerea). The data set can be described thus: Botryotinia fuckeliana (Botrytis cinerea)/Liquid Culture (Gray Mould). The following applies: liquid culture, compared to untreated control. It is filed as cell-based. On the procedure: Conidia of the fungus from cryogenic storage are directly mixed into nutrient broth (Vogels broth). After placing a (DMSO) solution of test compound into a microtiter plate (96-well format), the nutrient broth containing the fungal spores is added.

For data set [9], the system named is Magnaporthe grisea (Pyricularia oryzae). The data set can be described thus: whole plant or invertebrate. The class given is in vivo. Conditions: foliar, read-out: control of Magnaporthe grisea.
In another data set the test system is Phakopsora pachyrhizi. The data set can be described thus: Phakopsora pachyrhizi/Soybean/Preventative (Soybean Rust). The following applies: foliar, 288 h, 200 ppm, soybean leaf disc preventative, compared to untreated control, read-out: control of Phakopsora pachyrhizi. It is filed as in vivo.
In a further data set the test system is Plasmopara viticola. Kind of data set: whole plant or invertebrate. The class given is in vivo. The following applies: foliar, read-out: control of Plasmopara viticola.
The next data set has as its system Phytophthora infestans. Kind of data set: whole plant or invertebrate. It is filed as in vivo. Conditions: in Solanum lycopersicum, foliar, read-out: control of Phytophthora infestans.
Data set [10] deals with Phaeosphaeria nodorum (Septoria nodorum). Kind of data set: Phaeosphaeria nodorum (Septoria nodorum)/Wheat/Leaf Disc Preventative (Glume Blotch). It is filed as in vivo. The following applies: Parastagonospora nodorum, foliar, wheat leaf disc preventative, compared to untreated control. Put shortly:
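Wheat cv. Kanzler leaf discs on agar were sprayed with formulated compound diluted in water and inoculated with P. nodorum spores 2 days later. Discs kept at 20 °C, 75% rh, 12 h light/dark; percent disease control versus untreated scored 5–7 days after application.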

The subject of a further data set is Pyrenophora teres. Kind of data set: Pyrenophora teres/Barley/Leaf Disc Preventative (Net Blotch). It is filed as in vivo. The following applies: foliar, 200 ppm, barley leaf disc preventative, compared to untreated control, read-out: control of Pyrenophora teres. In outline:
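Formulated compound, diluted in water, sprayed onto barley cv. Hasso leaf segments on agar; spore suspension inoculation followed 2 days after application. Results expressed as percentage disease control.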

Each structure is given as a SMILES string.

Consider `CO/C=C(\Oc1cc(-n2ccc(C)n2)c(C)cc1C)C(=O)OC` [Compound E-17, methyl (Z)-2-[2,4-dimethyl-5-(3-methylpyrazol-1-yl)phenoxy]-3-methoxy-prop-2-enoate], for which the melting point is 123 to 124 °C. The inhibition of growth at 20 ppm in [1] is no less than 80%. This compound also returned a pest or weed control at 200 ppm in data set [2] of no less than 80%. In addition, the inhibition of growth at 20 ppm in [3] was no less than 80%. For the same compound, the pest or weed control at 200 ppm with Alternaria solani was no less than 80%. Further, the inhibition of growth at 20 ppm in [4] is no less than 80%. In data set [5], this compound showed a pest or weed control at 200 ppm of no less than 80%. In [6], the pest or weed control at 200 ppm was no less than 80%.

For the compound `CO/C=C(\Oc1cccc(-n2ccc(C(F)(F)F)n2)c1)C(=O)OC` [Compound E-15, methyl (Z)-3-methoxy-2-[3-[3-(trifluoromethyl)pyrazol-1-yl]phenoxy]prop-2-enoate], the inhibition of growth at 20 ppm in [1], in [7], in [3] and in [4] was no less than 80% throughout. Besides, the pest or weed control at 200 ppm (in [2]; in the data set with Alternaria solani; in data set [5]; in [6]) was no less than 80% in each case.

`CO/C=C(\Oc1cc(-n2ccc(C)n2)c(F)cc1C)C(=O)OC` [Compound E-64, methyl (Z)-2-[4-fluoro-2-methyl-5-(3-methylpyrazol-1-yl)phenoxy]-3-methoxy-prop-2-enoate] came in with a melting point of 134 to 138 °C. In data set [1], this compound displayed an inhibition of growth at 20 ppm of no less than 80%. Besides, the inhibition of growth at 20 ppm in data set [7] is no less than 80%. Further, the pest or weed control at 200 ppm in [2] was no less than 80%. This compound registered an inhibition of growth at 20 ppm in data set [3] of no less than 80%. This compound came in with a pest or weed control at 200 ppm with Alternaria solani of no less than 80%. This compound came in with an inhibition of growth at 20 ppm in [8] of no less than 80%. Also, the inhibition of growth at 20 ppm in data set [4] is no less than 80%. For the same compound, the pest or weed control at 200 ppm in [9] was no less than 80%. In the data set with Phakopsora pachyrhizi, the pest or weed control at 200 ppm is no less than 50%. In [5], this compound came in with a pest or weed control at 200 ppm of no less than 80%. Moreover, the pest or weed control at 200 ppm with Plasmopara viticola is no less than 80%.

`CO/C=C(\Oc1cc(-n2cc(C)c(C3CCCCC3)n2)ccc1C)C(=O)OC` [Compound E-113, methyl (Z)-2-[5-(3-cyclohexyl-4-methyl-pyrazol-1-yl)-2-methyl-phenoxy]-3-methoxy-prop-2-enoate] came in with a melting point of 145 to 148 °C. Moreover, the inhibition of growth at 20 ppm in data set [1] was no less than 80%. Further, in data set [7], the inhibition of growth at 20 ppm is no less than 80%. This compound showed an inhibition of growth at 20 ppm in data set [3] of no less than 80%. For the same compound, the pest or weed control at 200 ppm in the data set with Alternaria solani is no less than 80%. The inhibition of growth at 20 ppm in data set [4] was no less than 80%. Besides, the pest or weed control at 200 ppm in [9] is no less than 80%. In the data set on Phytophthora infestans, the pest or weed control at 200 ppm was no less than 80%. Moreover, in [6], the pest or weed control at 200 ppm is no less than 80%. Moreover, in the data set with Plasmopara viticola, the pest or weed control at 200 ppm was no less than 80%. Besides, the pest or weed control at 200 ppm in data set [10] was no less than 80%.

In turn, `CO/C=C(\Oc1cc(-n2ccc(C(F)(F)F)n2)c(C)cc1C)C(=O)OC` [Compound E-16, methyl (Z)-2-[2,4-dimethyl-5-[3-(trifluoromethyl)pyrazol-1-yl]phenoxy]-3-methoxy-prop-2-enoate] showed a melting point of 96 to 98 °C. Further, the inhibition of growth at 20 ppm in data set [1] is no less than 80%. For the same compound, the inhibition of growth at 20 ppm in data set [7] is no less than 80%. The pest or weed control at 200 ppm in data set [2] is no less than 80%. In data set [3], this compound gave an inhibition of growth at 20 ppm of no less than 80%. This compound came in with a pest or weed control at 200 ppm in the data set with Alternaria solani of no less than 80%. Further, the inhibition of growth at 20 ppm in data set [8] was no less than 80%. In addition, in data set [4], the inhibition of growth at 20 ppm is no less than 80%. In data set [5], this compound returned a pest or weed control at 200 ppm of no less than 80%. Moreover, the pest or weed control at 200 ppm in data set [6] is no less than 80%.

In turn, `CO/C=C(\Oc1cc(-n2cc(C(F)(F)F)cn2)ccc1C)C(=O)OC` [Compound E-81, methyl (Z)-3-methoxy-2-[2-methyl-5-[4-(trifluoromethyl)pyrazol-1-yl]phenoxy]prop-2-enoate] had a melting point of 102 to 105 °C. This compound had an inhibition of growth at 20 ppm in [1] of no less than 80%. Besides, the pest or weed control at 200 ppm with Pyrenophora teres is no less than 80%. In [7], this compound displayed an inhibition of growth at 20 ppm of no less than 80%. The same compound registered an inhibition of growth at 20 ppm in data set [3] of no less than 80%. In data set [8], this compound gave an inhibition of growth at 20 ppm of no less than 80%. Further, in data set [4], the inhibition of growth at 20 ppm was no less than 80%. In addition, in data set [9], the pest or weed control at 200 ppm was no less than 80%. In the data set on Phakopsora pachyrhizi, the pest or weed control at 200 ppm is no less than 50%. The same compound displayed a pest or weed control at 200 ppm in [5] of no less than 80%. Moreover, the pest or weed control at 200 ppm in the data set on Phytophthora infestans was no less than 80%. For the same compound, the pest or weed control at 200 ppm in data set [6] was no less than 80%. Besides, the pest or weed control at 200 ppm in the data set with Plasmopara viticola is no less than 80%. Moreover, in data set [10], the pest or weed control at 200 ppm is no less than 80%.

As for `CO/C=C(\Oc1cc(-n2ccc(C(F)(F)F)n2)c(Cl)cc1C)C(=O)OC` [Compound E-27, methyl (Z)-2-[4-chloro-2-methyl-5-[3-(trifluoromethyl)pyrazol-1-yl]phenoxy]-3-methoxy-prop-2-enoate], the inhibition of growth at 20 ppm in data set [1], in data set [7], in data set [3] and in data set [4] was no less than 80% each time. Further, the pest or weed control at 200 ppm in data set [2] was no less than 80%; in the data set on Alternaria solani it was no less than 80%; in data set [9], no less than 80%; in the data set on Phakopsora pachyrhizi it was no less than 50%; in data set [5] it was no less than 80%; in data set [6], no less than 80%. In addition, in the data set with Plasmopara viticola, the pest or weed control at 200 ppm is no less than 80%.

On to `CO/C=C(\Oc1cc(-n2ccc(C3CC3)n2)ccc1Cl)C(=O)OC` [Compound E-99, methyl (Z)-2-[2-chloro-5-(3-cyclopropylpyrazol-1-yl)phenoxy]-3-methoxy-prop-2-enoate], for which the inhibition of growth at 20 ppm in [1], in data set [7], in data set [3], in data set [8] and in data set [4] was no less than 80% in each case. Also, the pest or weed control at 200 ppm is no less than 80% in [2]; no less than 80% in the data set with Alternaria solani; no less than 80% in [9]; no less than 50% in the data set with Phakopsora pachyrhizi; no less than 80% in data set [5]; no less than 80% in the data set with Phytophthora infestans. The pest or weed control at 200 ppm (in [6]; in the data set with Plasmopara viticola; in data set [10]) was no less than 80% in each case.

As for `CO/C=C(\Oc1cc(-n2ccc(Cl)n2)ccc1Br)C(=O)OC` [Compound E-85, methyl (Z)-2-[2-bromo-5-(3-chloropyrazol-1-yl)phenoxy]-3-methoxy-prop-2-enoate], the inhibition of growth at 20 ppm in [1], in [7], in data set [3], in data set [8] and in [4] was no less than 80% in each case. Also, the pest or weed control at 200 ppm in the data set with Alternaria solani was no less than 80%; in data set [9] it was no less than 80%; in the data set on Phakopsora pachyrhizi, no less than 50%; in data set [5] it was no less than 80%; in data set [6] it was no less than 80%; with Plasmopara viticola, no less than 80%. In data set [10], the pest or weed control at 200 ppm is no less than 80%.

Values taken from US12043600B2, “Microbiocidal compounds” (SYNGENTA CROP PROTECTION AG, priority 2018, dated 2024).
